According to US4710469A, “Novel phosphotyrosyl protein phosphatase” (Merck & Co., Inc., priority 1986, dated 1987):
Where two headings read alike, the source gives them in different places.

Experiments:
[1] = system: Purified phosphotyrosyl protein phosphatase from human placental membranes; type: biochemical
Description: (§1) Human placental alkaline phosphatase and prostatic phosphatase were obtained commercially. Alkaline phosphatase was assayed in a reaction mixture containing 50 mM glycine NaOH, pH 10, MgCl2 and 1 mM PNPP; prostatic acid phosphatase was assayed in a reaction mixture containing 100 mM acetate, pH 5, 0.1 mM PNPP, and purified phosphotyrosyl protein phosphatase was assayed in 100 mM acetate, pH 5, 0.8 mM PNPP, 0.2 mg/ml BSA and 5 mM DTT. All assays were performed at 30°.
(§2) p-Nitrophenylphosphatase activity was determined in a final volume of […] containing 100 mM acetate, pH 5, 5 mM DTT, 2.5 mg/ml BSA and 1 mM PNPP. The reaction was carried out at 30° C. and terminated with 0.5 ml of 0.2N NaOH. Alkaline PNPP phosphatase activity was similarly determined except that 50 mM glycine NaOH, pH 10, was used as buffer and 10 mM MgCl2 was included in the reaction mixture. Absorption at 410 nm wavelength was recorded on a Gilson spectrophotometer. Units of phosphatase activity were calculated with a millimolar extinction coefficient of 17.5 for p-nitrophenol at 410 nm and pH 11.

[2] = system: Purified phosphotyrosyl protein phosphatase from human placental membranes; type: biochemical; remark: listed apart in the source
Description: Phosphotyrosine phosphatase activity was measured by the release of ^32 Pi from ^32 P-Tyr-angiotensin II in a […] reaction mixture containing 0.1M acetate, pH 5, 5 mM DTT, 2.5 mg/ml BSA and 0.05 mM ^32 Pi of ^32 P-Tyr-angiotensin II. After incubation at 30° for 30 minutes, the reaction was terminated by the addition of […] of 10% TCA. 0.2 ml of 1.25 mM KH2 PO4 in 1N H2 SO4 was added as carrier. 0.1 ml of 5% ammonium molybdate was then added. After extraction with 0.5 ml of 1:1 isobutanol:benzene, 0.25 ml of the upper phase was taken and mixed with 10 ml Aquasol II to be counted in a packard scintillation counter.

[3] = biological target: T1, Human placental alkaline phosphatase (obtained commercially) (Homo sapiens, UniProt P05187); assay: biochemical; settings: for inhibition at 10000 µM: compound at 10 mM, read-out: % change of activity; for inhibition at 10000 µM / % change of activity: 1 mM PNPP, glycine NaOH pH 10, MgCl2, 30°; for % change of activity: compound at 10 μM
T1 construct: purchased Worthington Biochem; host or cells: human placenta
T1 sequence (P05187 23-506 limits assumed): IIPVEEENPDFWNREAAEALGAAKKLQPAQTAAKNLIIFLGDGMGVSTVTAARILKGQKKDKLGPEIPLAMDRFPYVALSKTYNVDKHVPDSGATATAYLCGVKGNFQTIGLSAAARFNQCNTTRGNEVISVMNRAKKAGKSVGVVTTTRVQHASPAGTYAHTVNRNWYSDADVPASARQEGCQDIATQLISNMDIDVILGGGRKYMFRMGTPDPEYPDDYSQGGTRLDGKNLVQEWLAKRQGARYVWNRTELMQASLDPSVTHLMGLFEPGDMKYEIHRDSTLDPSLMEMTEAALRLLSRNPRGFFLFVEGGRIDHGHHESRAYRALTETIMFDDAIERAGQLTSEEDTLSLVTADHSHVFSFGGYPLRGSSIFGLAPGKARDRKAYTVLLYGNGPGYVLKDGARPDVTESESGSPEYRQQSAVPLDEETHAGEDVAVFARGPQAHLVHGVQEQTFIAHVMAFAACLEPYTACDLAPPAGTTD
Description: as §1, §2

[4] = biological target: T2, Human prostatic acid phosphatase (obtained commercially) (Homo sapiens, UniProt P15309); assay: biochemical; settings: for inhibition at 10000 µM: compound at 10 mM, read-out: % change of activity; for inhibition at 10000 µM / % change of activity: 0.1 mM PNPP, 100 mM acetate pH 5, 30°; for % change of activity: compound at 10 μM
T2 construct: purchased Sigma; host or cells: human semen
T2 sequence (P15309 33-386): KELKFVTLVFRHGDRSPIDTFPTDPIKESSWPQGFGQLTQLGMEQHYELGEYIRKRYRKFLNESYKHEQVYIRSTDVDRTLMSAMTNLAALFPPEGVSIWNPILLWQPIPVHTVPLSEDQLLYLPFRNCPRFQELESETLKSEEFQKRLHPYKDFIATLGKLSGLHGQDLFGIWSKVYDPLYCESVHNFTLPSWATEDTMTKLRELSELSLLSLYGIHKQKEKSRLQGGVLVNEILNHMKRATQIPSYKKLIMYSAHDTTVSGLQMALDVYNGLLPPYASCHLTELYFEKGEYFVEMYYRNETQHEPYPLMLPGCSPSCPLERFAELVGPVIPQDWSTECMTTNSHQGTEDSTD
Description: as §1, §2

[5] = pH 10, read-out: % change of activity
[6] = pH 5, read-out: % change of activity
[7] = compound at 10 mM, 0.8 mM PNPP, 100 mM acetate pH 5, 0.2 mg/ml BSA, 5 mM DTT, 30°
[8] = compound at 10 μM, 0.8 mM PNPP, 100 mM acetate pH 5, 0.2 mg/ml BSA, 5 mM DTT, 30°

O=C(O)CN(CCN(CC(=O)O)CC(=O)O)CC(=O)O [EDTA, Ethylene diamine tetraacetate]
stimulation of PNPP phosphatase activity [1]: 79%
% change of activity ([1]; purified phosphotyrosyl protein phosphatase, pH 5, 20000 µM): +78.9%
stimulation of 32P-Tyr-angiotensin II phosphatase activity [2]: 29.8%
inhibition at 20000 µM [3, 5]: 94%
effect on PNPP phosphatase activity [4]: not affected
inhibition at 20000 µM [4, 6]: 2.2%

O=C(O)[C@H](O)[C@@H](O)C(=O)O [L-tartrate]
effect on PNPP phosphatase activity [1]: nearly completely inhibited
% change of activity ([1]; purified phosphotyrosyl protein phosphatase, pH 5, 5000 µM): -98.1%
inhibition of 32P-Tyr-angiotensin II phosphatase activity [2]: 27.6%
inhibition at 5000 µM [3, 5]: 10.4%
inhibition at 5000 µM [4, 6]: 97.6%

N[C@@H](COP(=O)(O)O)C(=O)O [p-serine, phosphoserine]
% change of activity [1, 7]: +73.4%
stimulation of PNPP phosphatase activity ([1]; text summary of Table I, phosphoserine 10 mM per table): 73%
stimulation of 32P-Tyr-angiotensin II phosphatase activity ([2]; compound at 10 mM): 4.3%
inhibition at 10000 µM [3]: 92.6%
inhibition at 10000 µM [4]: 19%
effect on PNPP phosphatase activity ([4]; concentration not given): slightly inhibited

N[C@@H](Cc1ccc(OP(=O)(O)O)cc1)C(=O)O [p-tyrosine, phosphotyrosine]
% change of activity [1, 7]: -21.6%
effect on PNPP phosphatase activity ([1]; concentration not given): slightly inhibited
inhibition of 32P-Tyr-angiotensin II phosphatase activity ([2]; compound at 10 mM): 11.5%
inhibition at 10000 µM [3]: 85.6%
inhibition at 10000 µM [4]: 24.4%

[O]=[V]([O-])([O-])[O-] [vanadate]
% change of activity [1, 8]: -38.2%
effect on PNPP phosphatase activity ([1]; compound at 100 μM): nearly completely inhibited
inhibition of 32P-Tyr-angiotensin II phosphatase activity ([2]; compound at 10 μM): 46.4%
% change of activity [3]: -18.3%
% change of activity [4]: -87.8%

molybdate
effect on PNPP phosphatase activity ([1]; compound at 10 μM): nearly completely inhibited
% change of activity [1, 8]: -96.4%
inhibition of 32P-Tyr-angiotensin II phosphatase activity ([2]; compound at 10 μM): 20.8%
% change of activity [3]: 0%
% change of activity [4]: -95.0%
